# Patent US20210046106A1, “METHODS OF TREATING CANCER WITH ANDROGEN DEPRIVATION THERAPY IN COMBINATION WITH AN INHIBITOR OF THE SP1 TRANSCRIPTION FACTOR” (The Board of Trustees of the Leland Stanford Junior …, priority 2019, published 2021)
# What was measured:
# PSA = assay: Phase 1 trial: PSA in the subset of patients with prostate cancer; format: in vivo, human
# Source text: There was no evidence of a selenite dose response relationship, but patient numbers were too small and the patients too heterogeneous to draw a definitive conclusion about the presence or absence of a dose response relationship. Of note, patients were maintained on whatever ADT they were on before study entry, as discontinuation of ADT could have been even more of a confounding variable.
# [1] = SECAR study, cited from earlier work
# GI epithelium = assay: Preclinical: radiosensitization of normal GI epithelium; conditions: preclinical studies
# [2] = system: tumor in irradiated field; assay: Phase 1 trial: tumor response in irradiated field (imaging); format: in vivo, human; design: key: CR resolution of uptake; PR decrease in extent of involvement (# and size of lesion ≥ 50% observed); SD same extent of involvement (# and size of lesions)
# Source text: All but one patient received palliative radiation therapy to symptomatic bone metastases. Quantitation of response in bone is difficult and imprecise. Furthermore, patients were imaged as per standard of care, using a variety of imaging modalities, including bone scan, which is not applicable to RECIST scoring. […] There was no apparent dose response relationship.
# [3] = system: breast and ovarian cancer cell lines; conditions: 2 mg/kg, subcutaneous injection; cited from earlier work
# prostate cancer tumors = assay: Preclinical: growth of well-established prostate cancer tumors in mice; conditions: i.p. and p.o.
# [4] = Phase 1 trial: Brief Pain Inventory; format: in vivo, human; conditions: 10 point scale
# Protocol: They also completed another pain inventory.
# The pain inventory captured four categories of pain as follows: worst pain in last 24 hours, least pain in last 24 ours, average pain and pain right now. Pain was scored using a 10 point scale, on which 0 was no pain and 10 was severe pain. […] A change of at least one point was felt to be clinically meaningful.
# [5] = Phase 1 trial: population PK model (NONMEM, 1-compartment, oral absorption) and simulations; conditions: human, in vivo
# [6] = 5.5 mg cohort (N=3), First follow-up
# [7] = 11 mg cohort (N=3), First follow-up
# [8] = 16.5 mg cohort (N=3), End of RT
# [9] = 16.5 mg cohort (N=3), First follow-up
# [10] = 33 mg cohort (N=5), First follow-up
# [11] = 49.5 mg cohort (N=1), End of RT
# [12] = 49.5 mg cohort (N=1), First follow-up
compound,measurement,setting,value
"O=[Se](O)O [sodium selenite, Sodium selenite pentahydrate]",PSA % Change,"PSA; patient 2, 5.5 mg cohort, FU visit 2 M vs Day 1",−77.9%
same,PSA Value FU,"PSA; patient 2, 5.5 mg cohort, FU visit 2 M, Day 1 PSA 39.83",8.79 ng/mL
same,PSA % Change,"PSA; patient 3, 5.5 mg cohort, FU visit 2.25 M vs Day 1",6.2%
same,PSA Value FU,"PSA; patient 3, 5.5 mg cohort, FU visit 2.25 M, Day 1 PSA 225",239 ng/mL
same,PSA % Change,"PSA; patient 4, 11 mg cohort, FU visit 3.25 M vs Day 1",−72.9%
same,PSA Value FU,"PSA; patient 4, 11 mg cohort, FU visit 3.25 M, Day 1 PSA 131.83",35.77 ng/mL
same,PSA % Change,"PSA; patient 5, 11 mg cohort, FU visit 4 M vs Day 1",−52.6%
same,PSA Value FU,"PSA; patient 5, 11 mg cohort, FU visit 4 M, Day 1 PSA 40.61",19.25 ng/mL
same,PSA % Change,"PSA; patient 6, 11 mg cohort, FU visit 4 M vs Day 1",−67.3%
same,PSA Value FU,"PSA; patient 6, 11 mg cohort, FU visit 4 M, Day 1 PSA 0.98",0.32 ng/mL
same,PSA % Change,"PSA; patient 7, 16.5 mg cohort, FU visit 2.25 M vs Day 1",1155.7%
same,PSA Value FU,"PSA; patient 7, 16.5 mg cohort, FU visit 2.25 M, Day 1 PSA 1.74",21.85 ng/mL
same,PSA % Change,"PSA; patient 8, 16.5 mg cohort, FU visit 2.75 M vs Day 1",−59.4%
same,PSA Value FU,"PSA; patient 8, 16.5 mg cohort, FU visit 2.75 M, Day 1 PSA 3.3",1.34 ng/mL
same,PSA % Change,"PSA; patient 9, 16.5 mg cohort, FU visit 3.25 M vs Day 1",−11%
same,PSA Value FU,"PSA; patient 9, 16.5 mg cohort, FU visit 3.25 M, Day 1 PSA 1",0.89 ng/mL
same,PSA % Change,"PSA; patient 10, 33 mg cohort, FU visit 3 M vs Day 1",−67.1%
same,PSA Value FU,"PSA; patient 10, 33 mg cohort, FU visit 3 M, Day 1 PSA 196",64.46 ng/mL
same,"decrease in PSA, range","PSA; the seven of nine prostate cancer patients with a decrease, first follow up 2-4 months after RT",11-78%
same,MTD,"[1]; i.v. daily for 5 consecutive days for 2 or 4 weeks, 34 patients",10.2 mg/m^2
same,most common side effects,[1]; i.v.,"fatigue, nausea and cramps in fingers and legs"
same,sensitization of GI epithelium to radiation,GI epithelium,did not sensitize GI epithelium to radiation
same,Tumor Response in Irradiated Field,"[2]; patient 2 (prostate, 5.5 mg), Field 1, bone, BS 2 mo.",CR
same,Tumor Response in Irradiated Field,"[2]; patient 2 (prostate, 5.5 mg), Field 2, bone, BS 2 mo.",PR (PR decrease in extent of involvement (# and size of lesion ≥ 50% observed))
same,Tumor Response in Irradiated Field,"[2]; patient 3 (prostate, 5.5 mg), bone, BS 1 mo.",SD
same,Tumor Response in Irradiated Field,"[2]; patient 4 (prostate, 11 mg), bone, BS 1 mo.",CR
same,Tumor Response in Irradiated Field,"[2]; patient 5 (prostate, 11 mg), bone, BS 3 mo., ↓ intensity of uptake",SD ( ↓ Intensity of uptake)
same,Tumor Response in Irradiated Field,"[2]; patient 6 (prostate, 11 mg), bone, BS 5 mo., change from diffuse to patch involvement",PR (Change from diffuse to patch involvement (PR decrease in extent of involvement (# and size of lesion ≥ 50% observed))
same,Tumor Response in Irradiated Field,"[2]; patient 7 (prostate, 16.5 mg), bone, BS 1 mo., ↓ intensity of uptake",SD (↓ intensity of uptake)
same,Tumor Response in Irradiated Field,"[2]; patient 8 (prostate, 16.5 mg), bone, MRI 2 mo.",SD
same,Tumor Response in Irradiated Field,"[2]; patient 9 (prostate, 16.5 mg), bone, CT and MRI 3 mo.",SD
same,Tumor Response in Irradiated Field,"[2]; patient 10 (prostate, 33 mg), Field 1, bone, CT 4 mo.",PD (PD ≥ 20% ↑ sum of diameters)
same,Tumor Response in Irradiated Field,"[2]; patient 10 (prostate, 33 mg), Field 2, bone, CT 4 mo.",SD
same,Tumor Response in Irradiated Field,"[2]; patient 11 (multiple myeloma, 33 mg), bone, PET-CT 6 mo., almost complete metabolic resolution",PR (almost complete metabolic resolution) (PR ≥ 30% ↓ sum of diameters)
same,Tumor Response in Irradiated Field,"[2]; patient 12 (MPNST, 33 mg), lymph node, CT 1 mo.",SD
same,Tumor Response in Irradiated Field,"[2]; patient 13 (NSCLC, 33 mg), bone, CT, MRI and PET-CT 1 mo.",PD (PD ≥ 20% ↑ sum of diameters)
same,Tumor Response in Irradiated Field,"[2]; patient 15 (NSCLC, 49.5 mg), bone, BS 2 mo.",SD
same,effects on the host,[3],without apparent ill effects on the host
same,toxicity at the growth-inhibiting doses,prostate cancer tumors,no detectable toxicity
same,"Average Pain, average change from baseline, Mean ± SD","[4]; 5.5 mg cohort (N=3), End of RT",−2.5 ± 0.7
same,"Least Pain Last 24 Hrs, average change from baseline, Mean ± SD","[4]; 5.5 mg cohort (N=3), End of RT",−1.5 ± 2.1
same,"Pain Right Now, average change from baseline, Mean ± SD","[4]; 5.5 mg cohort (N=3), End of RT",−2 ± 0
same,"Worst Pain Last 24 Hrs, average change from baseline, Mean ± SD","[4]; 5.5 mg cohort (N=3), End of RT",−4 ± 1.4
same,"Average Pain, average change from baseline, Mean ± SD",[4]; [6],−1.5 ± 0.7
same,"Least Pain Last 24 Hrs, average change from baseline, Mean ± SD",[4]; [6],−1.5 ± 1.4
same,"Pain Right Now, average change from baseline, Mean ± SD",[4]; [6],−2 ± 0
same,"Worst Pain Last 24 Hrs, average change from baseline, Mean ± SD",[4]; [6],−2.5 ± 0.7
same,"Average Pain, average change from baseline, Mean ± SD","[4]; 11 mg cohort (N=3), End of RT",−2.3 ± 4.0
same,"Least Pain Last 24 Hrs, average change from baseline, Mean ± SD","[4]; 11 mg cohort (N=3), End of RT",−2.7 ± 3.8
same,"Pain Right Now, average change from baseline, Mean ± SD","[4]; 11 mg cohort (N=3), End of RT",1.7 ± 2.9
same,"Worst Pain Last 24 Hrs, average change from baseline, Mean ± SD","[4]; 11 mg cohort (N=3), End of RT",−1.7 ± 1.5
same,"Average Pain, average change from baseline, Mean ± SD",[4]; [7],−0.7 ± 4.6
same,"Least Pain Last 24 Hrs, average change from baseline, Mean ± SD",[4]; [7],−1.3 ± 4.9
same,"Pain Right Now, average change from baseline, Mean ± SD",[4]; [7],1.7 ± 1.2
same,"Worst Pain Last 24 Hrs, average change from baseline, Mean ± SD",[4]; [7],−0.7 ± 5.0
same,"Average Pain, average change from baseline, Mean ± SD",[4]; [8],−1.5 ± 3.5
same,"Least Pain Last 24 Hrs, average change from baseline, Mean ± SD",[4]; [8],−1 ± 2.8
same,"Pain Right Now, average change from baseline, Mean ± SD",[4]; [8],−0.5 ± 2.1
same,"Worst Pain Last 24 Hrs, average change from baseline, Mean ± SD",[4]; [8],−1 ± 1.4
same,"Average Pain, average change from baseline, Mean ± SD",[4]; [9],−2 ± 2
same,"Least Pain Last 24 Hrs, average change from baseline, Mean ± SD",[4]; [9],−2.3 ± 2.1
same,"Pain Right Now, average change from baseline, Mean ± SD",[4]; [9],−2.7 ± 3.8
same,"Worst Pain Last 24 Hrs, average change from baseline, Mean ± SD",[4]; [9],−0.7 ± 0.6
same,"Average Pain, average change from baseline, Mean ± SD","[4]; 33 mg cohort (N=5), End of RT",−1.2 ± 1.3
same,"Least Pain Last 24 Hrs, average change from baseline, Mean ± SD","[4]; 33 mg cohort (N=5), End of RT",−0.2 ± 0.5
same,"Pain Right Now, average change from baseline, Mean ± SD","[4]; 33 mg cohort (N=5), End of RT",−0.6 ± 1.1
same,"Worst Pain Last 24 Hrs, average change from baseline, Mean ± SD","[4]; 33 mg cohort (N=5), End of RT",−1 ± 2
same,"Average Pain, average change from baseline, Mean ± SD",[4]; [10],−1 ± 1
same,"Least Pain Last 24 Hrs, average change from baseline, Mean ± SD",[4]; [10],0 ± 1
same,"Pain Right Now, average change from baseline, Mean ± SD",[4]; [10],−0.8 ± 1.3
same,"Worst Pain Last 24 Hrs, average change from baseline, Mean ± SD",[4]; [10],−2 ± 2
same,"Average Pain, average change from baseline, Mean ± SD",[4]; [11],−4.5 ± 0
same,"Least Pain Last 24 Hrs, average change from baseline, Mean ± SD",[4]; [11],−5 ± 0
same,"Pain Right Now, average change from baseline, Mean ± SD",[4]; [11],−4 ± 0
same,"Worst Pain Last 24 Hrs, average change from baseline, Mean ± SD",[4]; [11],−6 ± 0
same,"Average Pain, average change from baseline, Mean ± SD",[4]; [12],−8.5 ± 0
same,"Least Pain Last 24 Hrs, average change from baseline, Mean ± SD",[4]; [12],−9 ± 0
same,"Pain Right Now, average change from baseline, Mean ± SD",[4]; [12],−8 ± 0
same,"Worst Pain Last 24 Hrs, average change from baseline, Mean ± SD",[4]; [12],−10 ± 0
same,Tmax,[5]; both,4.05 h
same,AUC,"[5]; both, 1100 mcg",6160 ng·h/mL
same,Cmax,"[5]; both, 1100 mcg",301 ng/mL
same,AUC,"[5]; both, 5500 mcg",3630 ng·h/mL
same,Cmax,"[5]; both, 5500 mcg",215 ng/mL
same,Tmax,"[5]; both, 5500 mcg",3.65 h
same,AUC,"[5]; both, 16500 mcg",8280 ng·h/mL
same,Cmax,"[5]; both, 16500 mcg",366 ng/mL
same,Tmax,"[5]; both, 16500 mcg",4.15 h
same,AUC,"[5]; both, 33000 mcg",13300 ng·h/mL
same,Cmax,"[5]; both, 33000 mcg",496 ng/mL
same,Tmax,"[5]; both, 33000 mcg",4.35 h
same,AUC,"[5]; both, 49500 mcg",17000 ng·h/mL
same,Cmax,"[5]; both, 49500 mcg",593 ng/mL
same,Tmax,"[5]; both, 49500 mcg",4.4 h
same,half-life,"[5]; half-life, simple formulation used in phase 1 trial",~19 h
same,AUC,"[5]; po, 5.5 mg",3700 ng·h/mL
same,Cmax,"[5]; po, 5.5 mg",214 ng/mL
same,AUC,"[5]; po, 11 mg",6250 ng·h/mL
same,Cmax,"[5]; po, 11 mg",301 ng/mL
same,AUC,"[5]; po, 16.5 mg",8360 ng·h/mL
same,Cmax,"[5]; po, 16.5 mg",366 ng/mL
same,AUC,"[5]; po, 33 mg",13300 ng·h/mL
same,Cmax,"[5]; po, 33 mg",497 ng/mL
same,AUC,"[5]; po, 49.5 mg",16900 ng·h/mL
same,Cmax,"[5]; po, 49.5 mg",595 ng/mL
same,half-life,"[5]; po, half-life calculated from population PK model, patients with metastatic cancer",~18.5 h
